Test results taken from ChEMBL document CHEMBL4402591, “Imidazo[1,2-a]pyridine Derivatives as Aldehyde Dehydrogenase Inhibitors: Novel Chemotypes to Target Glioblastoma Stem Cells” (J Med Chem, 2020).

Key:
[1] = target: T1, Retinaldehyde dehydrogenase 3 (Homo sapiens, UniProt P47895); experiment: Inhibition of recombinant human 6His-tagged ALDH1A3 expressed in Escherichia coli BL21(DE3) using acetaldehyde as substrate preincubated for 5 mins followed by substrate addition by spectrometric assay
T1 sequence (P47895 whole entry): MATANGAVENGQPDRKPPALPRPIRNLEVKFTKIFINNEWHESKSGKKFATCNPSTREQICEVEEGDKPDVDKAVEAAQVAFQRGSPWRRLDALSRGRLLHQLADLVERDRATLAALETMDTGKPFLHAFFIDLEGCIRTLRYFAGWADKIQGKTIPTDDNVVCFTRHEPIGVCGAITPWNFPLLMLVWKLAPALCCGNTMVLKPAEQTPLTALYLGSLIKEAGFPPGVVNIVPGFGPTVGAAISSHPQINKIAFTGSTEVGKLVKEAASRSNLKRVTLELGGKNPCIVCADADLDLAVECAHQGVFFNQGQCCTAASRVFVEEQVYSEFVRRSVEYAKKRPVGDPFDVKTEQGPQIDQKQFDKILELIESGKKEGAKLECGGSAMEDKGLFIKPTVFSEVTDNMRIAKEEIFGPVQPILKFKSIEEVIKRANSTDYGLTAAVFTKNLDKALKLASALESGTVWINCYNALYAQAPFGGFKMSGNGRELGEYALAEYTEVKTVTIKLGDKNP

[2] = Antiproliferative activity against human MES267 cells measured after 72 hrs by alamar blue assay; type: functional, cell-based
[3] = Antiproliferative activity against human PN157 cells measured after 72 hrs by alamar blue assay; type: functional, cell-based
[4] = Antiproliferative activity against human MES374 cells measured after 72 hrs by alamar blue assay; type: functional, cell-based
[5] = target: T2, Aldehyde dehydrogenase 1A1 (Homo sapiens, UniProt P00352); experiment: Inhibition of recombinant human 6His-tagged ALDH1A1 expressed in Escherichia coli BL21(DE3) using acetaldehyde as substrate preincubated for 5 mins followed by substrate addition by spectrometric assay
T2 sequence (P00352 whole entry): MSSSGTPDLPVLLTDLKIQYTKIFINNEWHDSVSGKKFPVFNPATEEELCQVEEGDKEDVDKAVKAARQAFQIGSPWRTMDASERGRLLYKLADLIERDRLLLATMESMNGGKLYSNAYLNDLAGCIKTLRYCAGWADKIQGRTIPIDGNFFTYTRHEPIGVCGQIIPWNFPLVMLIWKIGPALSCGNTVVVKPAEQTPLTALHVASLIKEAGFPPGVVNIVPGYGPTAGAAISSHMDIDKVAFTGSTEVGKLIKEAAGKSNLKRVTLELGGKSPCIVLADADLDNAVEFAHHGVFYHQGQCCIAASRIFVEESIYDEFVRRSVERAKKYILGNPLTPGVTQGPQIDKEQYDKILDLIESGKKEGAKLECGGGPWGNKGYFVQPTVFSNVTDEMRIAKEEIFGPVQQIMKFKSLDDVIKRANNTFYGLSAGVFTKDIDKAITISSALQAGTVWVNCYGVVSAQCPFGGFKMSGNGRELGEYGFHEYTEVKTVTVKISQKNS

Retinal dehydrogenase 2 = target: T3, Retinal dehydrogenase 2 (Homo sapiens, UniProt O94788); experiment: Inhibition of recombinant human 6His-tagged ALDH1A2 expressed in Escherichia coli BL21(DE3) using acetaldehyde as substrate preincubated for 5 mins followed by substrate addition by spectrometric assay
T3 sequence (O94788 whole entry): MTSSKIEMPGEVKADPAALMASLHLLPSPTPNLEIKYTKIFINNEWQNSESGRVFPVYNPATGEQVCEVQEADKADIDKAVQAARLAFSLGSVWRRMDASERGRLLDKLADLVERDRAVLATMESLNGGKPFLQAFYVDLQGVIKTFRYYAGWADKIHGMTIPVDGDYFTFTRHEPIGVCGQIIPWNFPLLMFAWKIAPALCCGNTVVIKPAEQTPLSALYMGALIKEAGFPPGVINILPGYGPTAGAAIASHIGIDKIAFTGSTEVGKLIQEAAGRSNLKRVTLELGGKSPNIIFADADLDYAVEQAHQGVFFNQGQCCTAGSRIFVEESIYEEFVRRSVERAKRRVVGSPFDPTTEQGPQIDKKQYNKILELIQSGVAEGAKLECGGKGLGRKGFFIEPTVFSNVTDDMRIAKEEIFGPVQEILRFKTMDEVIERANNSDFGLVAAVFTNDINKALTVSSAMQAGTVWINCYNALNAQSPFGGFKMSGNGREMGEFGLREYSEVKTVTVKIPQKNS

[6] = target: T1, Retinaldehyde dehydrogenase 3; experiment: Competitive inhibition of recombinant human 6His-tagged ALDH1A3 expressed in Escherichia coli BL21(DE3) using varying level of acetaldehyde as substrate preincubated for 5 mins followed by substrate addition by Michaelis-Menten plot analysis

Compound	IC50 [1] [µM]	IC50 [2] [µM]	IC50 [3] [µM]	IC50 [4] [nM]	IC50 [5] [µM]	IC50 (Retinal dehydrogenase 2) [µM]	Ki [6] [µM]
N#Cc1ccc(-c2ccc3nc(-c4ccccc4)cn3c2)cc1	5.2	–	–	–	–	–	–
Fc1ccc(-c2ccc3nc(-c4ccccc4)cn3c2)cc1	22.8	0.0634	0.0252	0.00258	–	–	–
COc1cccc(-c2cn3cc(-c4ccc(F)cc4)ccc3n2)c1	21.2	0.35	1.51	–	–	–	–
CSc1ccc(-c2ccc3nc(-c4ccccc4)cn3c2)cc1	27.1	–	–	–	–	–	–
Cc1ccc(-c2cn3cc(-c4ccc(F)cc4)ccc3n2)cc1	92.9	–	–	–	–	–	–
N#Cc1cccc(-c2ccc3nc(-c4ccccc4)cn3c2)c1	5.3	–	–	–	–	–	–
Clc1ccc(-c2ccc3nc(-c4ccccc4)cn3c2)cc1	45.8	0.0215	0.0531	0.0196	68.8	–	–
COc1ccc(-c2cn3cc(-c4ccc(OC)c(OC)c4)ccc3n2)cc1	8.3	–	–	–	–	–	–
COC(=O)c1ccc(-c2ccc3nc(-c4ccccc4)cn3c2)cc1	27.4	0.823	0.822	–	96.9	–	–
Cc1ccc(-c2cn3cc(-c4ccccc4)ccc3n2)cc1	11.3	–	–	–	–	–	–
COc1cccc(-c2cn3cc(-c4ccc(Cl)cc4)ccc3n2)c1	6.4	0.0712	0.0296	13.5	–	–	–
Clc1ccc(-c2ccc3nc(-c4ccc(Br)cc4)cn3c2)cc1	–	–	–	–	17.3	–	–
COc1ccc(-c2cn3cc(-c4cc(OC)cc(OC)c4)ccc3n2)cc1	3.5	–	–	–	198	–	–
COc1ccc(-c2ccc3nc(-c4ccc(OC)cc4)cn3c2)cc1	11.4	–	–	–	–	–	–
COc1ccc(-c2ccc3nc(-c4ccccc4)cn3c2)cc1	17.8	0.66	2.66	–	–	–	–
c1ccc(-c2ccc3nc(-c4ccccc4)cn3c2)cc1	4.7	0.0469	0.151	2.74	19.6	54.6	0.54
